Experimental findings from US10058562B2, “Methods of treatment of diseases” (Ampio Pharmaceuticals, Inc., priority 2012, dated 2018) are described below.

Data set [1] deals with patients with diabetic macular edema (DME). The class given is in vivo, human. The source says: Included were patients with DME and a central subfield retinal thickness of 300 μm or greater. A total of 34 patients constituted the safety set population. The efficacy evaluable population (n=23) was composed of patients from the safety set who completed 80% or greater of study medications at 4 weeks of treatment. The primary endpoint was change in central subfield retinal thickness from baseline to 12 weeks of treatment, and the secondary endpoints were change from baseline in retinal volume and Early Treatment Diabetic Retinopathy Study (ETDRS) best corrected visual acuity (BCVA) at week 12 of treatment. […] All treatments were administered orally twice a day.

Data set [2] deals with Primary human umbilical vein endothelial cells (HUVECs). Nature of the data set: HUVEC cell proliferation (Celltiter 96 AQueous One). It counts as cell-based. The procedure: Primary human umbilical vein endothelial cells (HUVECs) and EGM-2 growth medium were obtained from Cambrex (Walkersville, Md.). The cells were passaged in medium supplemented with 2% fetal calf serum (FCS) in tissue culture flasks at 37° C. and 5% CO2. Subculturing was performed using trypsin when 60-80% confluence was obtained as specified by the supplier.
Cryopreserved ampoules of passage 2 HUVECs were thawed and plated in 96 well tissue culture plates at 5,000 cells/cm^2. […] . In short, medium was aspirated from each well and the cells were washed with 200 μl […] (HBSS) from Cambrex warmed to 37° C. 100 μl diluted celltiter solution (15 μl stock+85 μl EGM-2 containing 0.1% FCS) were added to each well and incubated for an additional 4 hours. Optical density was determined by microplate reader using a 530 nm filter after blank subtraction and data presented as OD±standard deviation. The final concentration of ethanol in the wells was less then 0.2% and had no effect on cell proliferation or viability.
All data are presented as representative experiments done in triplicate. […] P<0.05 was considered statistically significant.

In data set [3] the test system is human retinal endothelial cells. Nature of the data set: Actin stress fiber formation, VEGF (Example 10). It counts as cell-based. As to conditions: for change of VEGF stress fiber pattern: 30 minutes before VEGF 25 ng/ml. The procedure:
. […] To counter-stain for nuclei, 100 μl of a 3 μM DAPI (4,6-diamidino-2-phenylindole, dilactate (Invitrogen)) solution was added to each well. After 5 minutes, the cells were washed two times with 100 μl PBS.

For data set [4], the system named is HUVECs. Nature of the data set: HUVEC tube formation assay. The note with it: 18 hours.
The test system of data set [5] is human retinal endothelial cells. The data set is described as follows: ECIS resistance (Example 14). As to conditions: for persistence of ECIS increase: danazol 1.0 μM, S1P 1 μM, alone or in combination.
Description: (§1) Electrical resistance was measured using the electric cell-substrate impedance sensing (ECIS) system (ECISZθ, obtained from Applied Biophysics) with 8-well multiple electrode plates (8W10E). […] The fibronectin solution was removed, and 400 μl of EGM-2 culture medium (Lonza) was added to each well. The plates were connected to the ECISZθ system and were electrically stabilized. The EGM-2 medium was aspirated and replaced with 200 μl of EGM-2 culture medium containing 100,000 cells per well. […] The EGM-2 medium was aspirated and replaced with 400 μl of fresh EGM-2 culture medium per well. […] Concentrated solutions of the test compounds in HBSS were prepared and placed in the incubator to equilibrate. […] ECIS (resistance) was monitored for 90 hours.
The test system of data set [6] is human renal glomerular microvascular endothelial cells. The data set is described as follows: ECIS resistance (Example 14). As to conditions: danazol 1 μM alone.
Description: as §1
For data set [7] the test system is unchanged. Nature of the data set: ECIS resistance (Example 15). The note with it: 1 μM.
Data set [8] has the same test system. The data set is described as follows: Actin stress fiber formation (Example 13). The note with it: for F-actin staining, danazol alone: 1 μM; for F-actin staining, agent alone: TNFα 1 ng/ml or S1P 1 μM alone, over the time course.
Data set [9] deals with human retinal endothelial cells. The data set is described as follows: Actin stress fiber formation (Example 13). The note with it: for F-actin staining, danazol alone: 1 μM; for F-actin staining, agent alone: TNFα 1 ng/ml or S1P 1 μM alone, over the time course.
For data set [10] the test system is unchanged. Nature of the data set: TER of endothelial cell monolayers (Example 6). As to conditions: 1.0 μM.
Description: (§2) Assays were also performed in the same manner using passage 8 human brain endothelial cells and passage 8 human umbilical vein endothelial cells.
(§3) An initial TER measurement was taken for each insert using EVOM^2 voltohmmeter connected to an STX100 electrode (both from World Precision Instruments). […] All data are presented as TER measurements/cm^2 of insert with TER of blank inserts subtracted.
For data set [11], the system named is human brain endothelial cells. Nature of the data set: TER of endothelial cell monolayers (Example 6). The note with it: 1.0 μM.
Description: as §2, §3
Data set [12] deals with human umbilical vein endothelial cells. Nature of the data set: TER of endothelial cell monolayers (Example 6). The note with it: 1.0 μM.
Description: as §2, §3
The subject of data set [13] is human retinal endothelial cells. The data set is described as follows: Actin stress fiber formation, TNFα (Example 9). The note with it: 30 minutes.
Description: Then, the medium was removed and replaced with 200 μl of IMDM medium supplemented with 0.1% fetal bovine serum (all from Lonza), and the cells were cultured under these growth factor and serum starved conditions for one hour to suppress actin polymerization. […] Immediately following addition of these compounds, TNFα (final concentration of 50 ng/ml) was added. […] All wells were then washed two times with 100 μl PBS. The cells were permeabilized using a 0.1% Triton X-100 in PBS for 5 minutes. All wells were then washed two times with 100 μl PBS, and 50 μl of a 1:40 dilution of rhodamine-phalloidin (Invitrogen) in PBS was added to the cells to stain for F-actin and left on the cells for 20 minutes at room temperature. All wells were then washed two times with 100 μl PBS.
In data set [14] the test system is Retinal endothelial cells. Nature of the data set: F-actin (phalloidin) staining of endothelial cells. As to conditions: barrier-enhancing concentrations.
Excerpt: Retinal endothelial cells stained with rhodamine conjugated phalloidin.
Data set [15] relates to endothelial cells. The data set is described as follows: TEER across endothelial cell monolayers on transwell inserts. The note with it: barrier-enhancing concentrations, within minutes of exposure.
Excerpt: TEER measured across monolayers of endothelial cells grown on transwell inserts. Higher resistance equals greater barrier integrity.

Read-outs that look alike come from different tables or passages of the source. Where only a bound is given, the exact number is not on record here.

As for `C#C[C@]1(O)CC[C@H]2[C@@H]3CCC4=Cc5oncc5C[C@]4(C)[C@H]3CC[C@@]21C` [Danazol, 17α-pregna-2,4-dien-20-yno[2,3-d]-isoxazol-17β-ol], the “effect on retinal thickness versus baseline BMI” value in data set [1] (10 mg dose) is “became less significant with increasing baseline BMI”; in [1] (30 mg danazol dose), “became more significant with increasing baseline BMI”. Further, the “patients with a clinically relevant change in OCT after 12 weeks of treatment” value in data set [1] (30 mg danazol, placebo 2 of 7 patients) is 6/7. Moreover, the “Retinal volume compared with placebo” value in [1] (15-mg group, P=0.05) is listed as “decreased”. Moreover, the “subjects with a significant decrease in retinal thickness (more than 11%) at 12 weeks” value in data set [1] (DME patients, oral 15-mg dose (15 mg twice daily), 6 of 7 patients, placebo 29%) was 86%. In addition, the “subjects with BCVA improvement of at least 1 category (ICD-9-CM vision loss)” value in data set [1] (all patients treated with danazol, placebo 14%) was 47%. In addition, in data set [1] (in vivo), the ocular hypertension entry is recorded as “No ocular hypertension was detected”. Besides, in data set [1] (in vivo), the “treatment-related adverse events (number)” value was “Three”. The “OD (celltiter proliferation assay)” value in data set [2] (24 hours, 10 μM, nil 0.414±0.06) is given as 0.288±0.037; in data set [2] (24 hours, 100 μM, nil 0.414±0.06), 0.162±0.017; in data set [2] (48 hours, 1 μM, nil 0.629±0.095), 0.378±0.037; in data set [2] (48 hours, 10 μM, nil 0.629±0.095), 0.241±0.012; in [2] (48 hours, 100 μM, nil 0.629±0.095), 0.19±0.033; in data set [2] (72 hours, 0.1 μM, nil 1.113±0.054), 0.798±0.037. Moreover, the “OD (celltiter proliferation assay)” value in data set [2] (72 hours, 1 μM, nil 1.113±0.054) was 0.484±0.022; in data set [2] (72 hours, 10 μM, nil 1.113±0.054) it was 0.229±0.016; in data set [2] (72 hours, 100 μM, nil 1.113±0.054) it was 0.156±0.018. Also, the “change of VEGF stress fiber pattern” value in data set [3] (0.1 μM) is “made the stress fibers less pronounced and some diffuse staining appeared”; in [3] (1.0 μM), “showed fewer thick stress fibers, but focal points were seen on contact surfaces”; in data set [3] (10.0 μM), “showed strong stress fiber development with focal points”. Moreover, the F-actin staining pattern result is “there was no longer any diffuse staining, and stress fiber development and focal points were seen” in [3] (10.0 μM, no VEGF); “stress fibers with multiple focal points were detected” in [13] (10.0 μM). Further, the “effect on tube formation” value in [4] (1 μM) and in data set [4] (10 μM) was “no effect” each time. The “start of ECIS increase compared to untreated cells, after treatment” value in data set [5] (1.0 μM) lay in the range of 1.5 to 2.0 h. The “persistence of ECIS increase” value in data set [5] was 5 h; in data set [7] it was “about 90 hours”. Moreover, in [6], the “period of greatest ECIS increase” value was 60 to 90 h. In addition, the “start of ECIS increase compared to untreated cells” value in data set [7] (medium without dexamethasone) is on record as “about 3 hours”. Also, the “F-actin staining, danazol alone” value in data set [8] (15 minutes) was “perinuclear staining”; in data set [8] (3 hours) it was “diffuse staining throughout the cells with ruffled edges on many of the cells”; in [8] (24 hours), “staining similar to untreated controls”; in data set [9] (15 minutes), “perinuclear staining”; in data set [9] (3 hours) it was “diffuse staining throughout the cells with ruffled edges on many of the cells”; in data set [9] (24 hours), “staining similar to untreated controls”. In addition, the TER worked out at 21.7 in [10] (0 Hours, per cm^2 of insert, blank subtracted, None 32.3); 132.3 in data set [10] (24 Hours, None 96.0); 182.3 in data set [10] (48 Hours, None 144.4); 217.7 in data set [10] (72 Hours, None 148.0); 234.8 in data set [10] (144 Hours, None 219.7); 32.3 in [11] (0 Hours, per cm^2 of insert, blank subtracted, None 41.4). Besides, the TER in data set [11] (24 Hours, None 115.7) worked out at 139.9; in data set [11] (48 Hours, None 176.3) it was 188.4; in data set [11] (72 Hours, None 154.0), 149.5; in data set [11] (144 Hours, None 151.5), 125.8; in data set [12] (0 Hours, per cm^2 of insert, blank subtracted, None 82.3), 70.2; in data set [12] (24 Hours, None 217.2), 246.0. The TER in [12] (48 Hours, None 276.3) came out at 364.1; in data set [12] (72 Hours, None 226.8) it was 270.7; in data set [12] (144 Hours, None 227.3) it was 286.4. For the same compound, the “stress fiber development with TNFα” value in [13] (TNFα 50 ng/ml, danazol 0.1 μM or 10 μM, LY294002 10 μM) was “decreased the number of cells exhibiting stress fiber development with TNFα”. The F-actin staining result in data set [14] (within minutes of exposure) is “f-actin cortical ring formation”. Also, in data set [14] (stimulation with TNF-a or thrombin), the “stress fiber formation upon stimulation” value is reported as “counteracted the formation of stress fibers”. The “endothelial barrier function (TEER)” value in data set [15] is listed as “increases in endothelial barrier function”.
Regarding `CCCCCCCCCCCCC/C=C/[C@@H](O)[C@@H](N)COP(=O)(O)O` [S1P, sphingosine-1 phosphate], the “start of ECIS increase compared to untreated cells, after treatment” value in [5] (S1P 1 μM alone) is at most 0.25 h. Besides, in data set [5], the “persistence of ECIS increase” value is on record as “about 3 hours”. Also, the “F-actin staining, agent alone” value in data set [8] and in data set [9] was “showed actin cortical rings” in each case.
As for VEGF, the “stress fiber development, stimulus alone” value in [3] (VEGF 25 ng/ml, 30 minutes) is “strong stress fiber development”.
Take TNFα: the “F-actin staining, agent alone” value in [8] and in data set [9] was “stress fibers were seen at all times” each time. The “stress fiber development, stimulus alone” value in data set [13] (TNFα 50 ng/ml) is listed as “led to strong stress fiber development with intensely staining focal points”.
